# Results as given in patent EP3183253B1, “SALT OF (R)-3-(4-(7H-PYRROLO [2,3-D]PYRIMIDIN-4-YL)-LH-PYRAZOL-L-YL)-3-CYCLOPENTYLPROPANENITRILE WITH BENZENESULFONIC ACID” (ratiopharm GmbH, priority 2014, dated 2016).
# Legend:
# Type in all cases: physicochemical
# [1] = Storage stability: chemical purity by HPLC/UV; settings: for Chemical purity ([area-%] at λ=230 nm): 40°C/75% rh
# Experimental: (§1) Samples were stored in closed and open containers at 25°C/60% rh and at 40°C/75% rh and analyzed after 4, 8 and 12 weeks.
# The results of determination of the chemical purity during storage at 40°C/75% rh are summarized. […] Therefore, the analysis of samples, which were stored at 25°C/60% rh, was omitted.
# [2] = Dynamic vapor sorption experiment (hygroscopicity); settings: 25°C, reducing humidity to 0% and increasing to 40%
# Experimental: Vapour sorption experiments were performed in the instrument SPSx-1µ (Projekt Messtechnik, Ulm, Germany) at temperature of 25°C and the humidity cycles as shown below.
# A dynamic vapor sorption experiment was performed with Ruxolitinib besylate. At a constant temperature of 25°C, the substance was exposed to two cycles of varying relative humidity (rh) (40% → 0% →95% (75% r.h. kept constant for 48h) → 0% →40%). Figure 3a presents the relative weight change as a function of time and relative humidity and in […] changes are illustrated as a function of humidity.
# [3] = Storage stability: solid-state stability by XRPD analysis
# Experimental: The sample was analyzed on a D8 Advance X-ray powder diffractometer (Bruker-AXS, Karlsruhe, Germany). The sample holder was rotated in a plane parallel to its surface at 20 rpm during the measurement. The raw data were analyzed with the program EVA (Bruker-AXS, Germany). The samples were layered onto a silicon specimen holder.
# as §1
# The solid-state stability was investigated by XRPD analysis for 25°C/60% rh. The results of evaluation are summarized.
# [4] = pH-dependency of solubility at 37°C; settings: for solubility: 37°C
# From the text: The intestinal tract obeys different pH ranges, which vary from pH 1 to 2 of the empty stomach, pH 3-5 for stomach filled with chyme, to pH 5-7.5 of the colon.
smiles,measurement,setting,value
"N#CC[C@H](C1CCCC1)n1cc(-c2ncnc3[nH]ccc23)cn1 [Ruxolitinib besylate, Ruxolitinib benzenesulfonate]",chemical stability during storage (in words),"[1]; 40°C/75% rh, 4, 8 and 12 weeks",remained chemically stable
same,Chemical purity ([area-%] at λ=230 nm),"[1]; closed container, 4 weeks",98.14% area-%
same,Chemical purity ([area-%] at λ=230 nm),"[1]; closed container, 8 weeks",98.27% area-%
same,Chemical purity ([area-%] at λ=230 nm),"[1]; closed container, 12 weeks",98.06% area-%
same,Chemical purity ([area-%] at λ=230 nm),"[1]; closed container, t = 00 (= initial)",98.16 area-%
same,Chemical purity ([area-%] at λ=230 nm),"[1]; open container, 4 weeks",98.16% area-%
same,Chemical purity ([area-%] at λ=230 nm),"[1]; open container, 8 weeks",98.21% area-%
same,Chemical purity ([area-%] at λ=230 nm),"[1]; open container, 12 weeks",98.22% area-%
same,Chemical purity ([area-%] at λ=230 nm),"[1]; open container, t = 00 (= initial)",98.16 area-%
same,weight after desorption and re-sorption (in words),[2],resulted in the initial starting weight
same,stability upon storage (in words),"[3]; 25°C and 60% relative humidity (RH), up to at least 12 weeks",stable
same,solid-state stability by XRPD (in words),"[3]; 25°C/60% rh, throughout the observation period",remained unchanged
same,solubility at 0.5 h,"[4]; 0.1m hcl, pH 1.2, 37°C, 0.1M HCl pH1.2, 0.5 h",9600 µg/mL
same,solubility at 1 h,"[4]; 0.1m hcl, pH 1.2, 37°C, 0.1M HCl pH1.2, 1 h",9600 µg/mL
same,solubility at 24 h,"[4]; 0.1m hcl, pH 1.2, 37°C, 0.1M HCl pH1.2, 24 h",9300 µg/mL
same,solubility at 1 h,"[4]; 20mm naoac, pH 4.5, 37°C, 20mM (NaOAc / NaAc) -pH 4.5, 1 h",7100 µg/mL
same,solubility,"[4]; 20mM (NaOAc / NaAc) -pH 4.5, 0.5 h",6700 µg/mL
same,solubility,"[4]; 20mM (NaOAc / NaAc) -pH 4.5, 24 h",6100 µg/mL
same,solubility,"[4]; 50mM KH2PO4 pH 6.8, 24 h",5800 µg/mL
same,solubility at 0.5 h,"[4]; 50mm kh2po4, pH 6.8, 37°C, 50mM KH2PO4 pH 6.8, 0.5 h",6800 µg/mL
same,solubility at 1 h,"[4]; 50mm kh2po4, pH 6.8, 37°C, 50mM KH2PO4 pH 6.8, 1 h",7000 µg/mL
